For two molecules, EC50 results are on record in patent US8242274B2, “Triazolopyridine kinase inhibitors useful for the treatment of degenerative and inflammatory diseases” (Galapagos NV, priority 2008, dated 2012).

The test system of this assay is pSTAT1(2)-luciferase reporter. Nature of the assay: JAK-STAT signalling assay (HeLa cells, OSM trigger). It is filed as cell-based. Conditions: human OSM 33 ng/mL. The protocol:
HeLa cells were maintained in Dulbecco's Modified Eagle's Medium (DMEM) containing 10% heat inactivated fetal calf serum, 100 U/mL penicillin and 100 μg/mL streptomycin. HeLa cells were used at 70% confluence for transfection. 20,000 cells in 87 μL cell culture medium were transiently transfected with 40 ng pSTAT1(2)-luciferase reporter (Panomics), 8 ng of LacZ reporter as internal control reporter and 52 ng of pBSK using 0.32 μL Jet-PEI (Polyplus) as transfection reagent per well in 96-well plate format. After overnight incubation at 37° C., 10% CO2, transfection medium was removed. 75 μL of DMEM+1.5% heat inactivated fetal calf serum was added. 15 μL of compound at 6.7× concentration was added for 60 min and then 10 μL of human OSM (Peprotech) at 33 ng/mL final concentration. […]
40 μL of cell lysate was used to read β-galactosidase activity by adding 180 μL βGal solution (30 μl ONPG 4 mg/mL+150 μL β-Galactosidase buffer (0.06 M Na2HPO4, 0.04 M NaH2PO4, 1 mM MgCl2)) for 20 min. The reaction was stopped by addition of 50 μL Na2CO3 1 M. Absorbance was read at 405 nm.
Luciferase activity was measured using 40 μL cell lysate plus 40 μl of Steadylite® as described by the manufacturer (Perkin Elmer), on the Envision (Perkin Elmer). […]

Consider `CC(=O)Nc1ccc(COc2ccc(-c3cccc4nc(NC(=O)C5CC5)nn34)cc2)cc1` [Compound 92, N-(5-(4-(4-acetamidobenzyloxy)phenyl)-[1,2,4]triazolo[1,5-a]pyridin-2-yl)cyclopropanecarboxamide], for which the EC50 was over 1000 nM. The value for `N#Cc1ccc(COc2ccc(-c3cccc4nc(NC(=O)C5CC5)nn34)cc2)cn1` [Compound 176, N-(5-(4-((6-cyanopyridin-3-yl)methoxy)phenyl)-[1,2,4]triazolo[1,5-a]pyridin-2-yl)cyclopropanecarboxamide] was 1 to 100 nM.

By EC50 is commonly meant the concentration at which the effect is half-maximal. Read a high EC50 as a less potent agent.
